Measured values from patent US8188059B2, “Compounds and methods for modulating expression of GCGR” (Isis Pharmaceuticals, Inc., priority 2006, dated 2012).
Strand notation (5' to 3'): a small letter for the sugar, then the base; units joined by * are phosphorothioate-linked, units joined directly phosphodiester-linked; [ ] holds rarer units or linkages, { } end groups; capitals alone tell only the bases. e = 2'-O-(2-methoxyethyl) (MOE); [5mC] = 5-methylcytosine; d = 2'-deoxy (DNA)

Experiments:
PCSK9 mRNA [1] = assay type: cell-based, human; conditions: Hep3B cells, 100 nM, relative to untreated control cells; for % Inhib (PCSK9 mRNA): 0 = no reduction observed
Procedure: When cells reached appropriate confluency, they were treated with oligonucleotide using LIPOFECTIN® as described. […] Cells were treated and data were obtained in duplicate or triplicate. […] Cells were harvested 16-24 hours after oligonucleotide treatment.
Short antisense compounds targeted to a PCSK9 nucleic acid were tested for their effects on PCSK9 mRNA in vitro. The Isis No, gapmer motif and SEQ ID NO of each short antisense compound are shown again in Table 75. Cultured Hep3B cells were treated with 100 nM of short antisense compound. 5-10-5 MOE gapmers targeted to a PCSK9 nucleic acid were used as positive controls. After the treatment period, RNA was isolated from the cells and PCSK9 mRNA levels were measured by quantitative real-time PCR, as described herein. PCSK9 mRNA levels were adjusted according to total RNA content as measured by RIBOGREEN®. Results are presented in Table 75 as percent inhibition of PCSK9 (% Inhib), relative to untreated control cells.

PCSK9 mRNA [2] = test: Dose-dependent inhibition of PCSK9 in Hep3B cells with EC50 (Example 19, Table 76); assay type: cell-based, human
Procedure: Short antisense compounds targeted to a PCSK9 nucleic acid were tested in a dose response experiment Hep3B cells. After the treatment period, RNA was isolated from the cells and PCSK9 mRNA levels were measured by quantitative real-time PCR, as described herein. PCSK9 mRNA levels were normalized to cyclophilin mRNA levels, as measured by real-time PCR using a cyclophilin-specific primer probe set. Results are presented as percent inhibition of PCSK9, relative to untreated control cells. […] As illustrated in the following table, PCSK9 mRNA levels were reduced in a dose-dependent manner.

SGLT2 mRNA = SGLT2 mRNA levels in kidney of Balb/c mice, twenty 1-10-1 MOE gapmers at 350 nmol/kg, PPS 534 and PPS 553 (Example 18, Table 74); assay type: in vivo, mouse; conditions: 350 nmol/kg i.p. twice per week for two weeks
Procedure: Twenty 1-10-1 MOE gapmers that are complementary to human/monkey/mouse/rat SGLT2 were designed, synthesized and tested in vivo for suppression of SGLT2 mRNA levels in kidney. Data are averages from two experiments in which male 6-week old Balb/c mice were administered intraperitoneal injections of 350 nmol/kg of oligonucleotide, twice per week, over a period of two weeks (a total of four injections). Mice were sacrificed 48 hours following the last administration and evaluated for SGLT2 mRNA levels in kidney. SGLT2 mRNA levels were determined by quantitative real-time PCR analysis according to standard procedures, using two different PCR primer probe sets, primer probe set (PPS) 534 and PPS 553. SGLT2 mRNA levels were normalized to cyclophilin mRNA levels, which were also measured by quantitative real-time PCR.

PTP1B mRNA [3] = test: Dose response for human PTP1B in HuVEC cells, Primer Probe Set 198 (Example 25, Table 86); assay type: cell-based
Procedure: (§1) Human vascular endothelial (HuVEC) cells were plated at a density of 5000 cells per well and treated as described herein with nM concentrations of short antisense compound as indicated in Table 86. After the treatment period, RNA was isolated from the cells and PTP1B mRNA levels were measured by quantitative real-time PCR, as described herein. PTP1B mRNA levels were adjusted according to total RNA content as measured by RIBOGREEN®. Two different human PTP1B primer probe sets were used to measure mRNA levels. Results with Primer Probe Set (PPS) 198 are shown in Table 86, and results with Primer Probe Set (PPS) 3000 are shown in Table 87. Results are presented as percent inhibition of PTP1B mRNA expression relative to untreated control cells.

PTP1B mRNA [4] = test: Dose response for human PTP1B in HuVEC cells, Primer Probe Set 3000 (Example 25, Table 87); assay type: cell-based
Procedure: as §1

Substance: 400308 (e[5mC]*e[5mC]*dG*dG*d[5mC]*d[5mC]*dG*d[5mC]*dT*dG*dA*d[5mC]*e[5mC]*eA; antisense) [compound 400308]
- % Inhibition Range (PCSK9 mRNA) (PCSK9 mRNA [1]): 50-60%
- % Inhib (PCSK9 mRNA) (PCSK9 mRNA [1]): 55%
- % Inhibition of PCSK9 (PCSK9 mRNA [2]; 5 nM): 31%
- % Inhibition of PCSK9 (PCSK9 mRNA [2]; 10 nM): 10%
- % Inhibition of PCSK9 (PCSK9 mRNA [2]; 20 nM): 26%
- % Inhibition of PCSK9 (PCSK9 mRNA [2]; 40 nM): 40%
- % Inhibition of PCSK9 (PCSK9 mRNA [2]; 80 nM): 77%
- % Inhibition of PCSK9 (PCSK9 mRNA [2]; 160 nM): 86%

Substance: 379689 (antisense eA*dG*dA*dG*d[5mC]*dG*d[5mC]*dA*dT*dT*d[5mC]*e[5mC]) [compound 379689]
- SGLT2 mRNA in kidney, % change relative to saline (SGLT2 mRNA; primer probe set 534): −17.5%
- SGLT2 mRNA in kidney, % change relative to saline (SGLT2 mRNA; primer probe set 553): −30.4%

Substance: 400331 (eG*e[5mC]*d[5mC]*dA*d[5mC]*dG*dT*dG*dG*dG*d[5mC]*dA*eG*e[5mC]; antisense) [compound 400331]
- % Inhibition Range (PCSK9 mRNA) (PCSK9 mRNA [1]): 30-40%
- % Inhib (PCSK9 mRNA) (PCSK9 mRNA [1]): 35%
- % Inhibition of PCSK9 (PCSK9 mRNA [2]; 5 nM): 29%
- % Inhibition of PCSK9 (PCSK9 mRNA [2]; 10 nM): 40%
- % Inhibition of PCSK9 (PCSK9 mRNA [2]; 20 nM): 47%
- % Inhibition of PCSK9 (PCSK9 mRNA [2]; 40 nM): 63%
- % Inhibition of PCSK9 (PCSK9 mRNA [2]; 80 nM): 75%
- % Inhibition of PCSK9 (PCSK9 mRNA [2]; 160 nM): 82%

Substance: 400309 (e[5mC]*e[5mC]*d[5mC]*dG*dG*d[5mC]*d[5mC]*dG*d[5mC]*dT*dG*dA*e[5mC]*e[5mC]; antisense) [compound 400309]
- % Inhibition Range (PCSK9 mRNA) (PCSK9 mRNA [1]): 40-50%
- % Inhib (PCSK9 mRNA) (PCSK9 mRNA [1]): 44%
- % Inhibition of PCSK9 (PCSK9 mRNA [2]; 5 nM): 49%
- % Inhibition of PCSK9 (PCSK9 mRNA [2]; 10 nM): 23%
- % Inhibition of PCSK9 (PCSK9 mRNA [2]; 20 nM): 38%
- % Inhibition of PCSK9 (PCSK9 mRNA [2]; 40 nM): 12%
- % Inhibition of PCSK9 (PCSK9 mRNA [2]; 80 nM): 72%
- % Inhibition of PCSK9 (PCSK9 mRNA [2]; 160 nM): 78%

Substance: 400330 (e[5mC]*e[5mC]*dA*d[5mC]*dG*dT*dG*dG*dG*d[5mC]*dA*dG*e[5mC]*eA; antisense) [compound 400330]
- % Inhibition Range (PCSK9 mRNA) (PCSK9 mRNA [1]): 40-50%
- % Inhib (PCSK9 mRNA) (PCSK9 mRNA [1]): 43%
- % Inhibition of PCSK9 (PCSK9 mRNA [2]; 5 nM): 8%
- % Inhibition of PCSK9 (PCSK9 mRNA [2]; 10 nM): 32%
- % Inhibition of PCSK9 (PCSK9 mRNA [2]; 20 nM): 40%
- % Inhibition of PCSK9 (PCSK9 mRNA [2]; 40 nM): 69%
- % Inhibition of PCSK9 (PCSK9 mRNA [2]; 80 nM): 82%
- % Inhibition of PCSK9 (PCSK9 mRNA [2]; 160 nM): 71%

Substance: 400307 (e[5mC]*eG*dG*d[5mC]*d[5mC]*dG*d[5mC]*dT*dG*dA*d[5mC]*d[5mC]*eA*e[5mC]; antisense) [compound 400307]
- % Inhibition Range (PCSK9 mRNA) (PCSK9 mRNA [1]): 70-80%
- % Inhib (PCSK9 mRNA) (PCSK9 mRNA [1]): 76%
- % Inhibition of PCSK9 (PCSK9 mRNA [2]; 5 nM): 35%
- % Inhibition of PCSK9 (PCSK9 mRNA [2]; 10 nM): 39%
- % Inhibition of PCSK9 (PCSK9 mRNA [2]; 20 nM): 45%
- % Inhibition of PCSK9 (PCSK9 mRNA [2]; 40 nM): 56%
- % Inhibition of PCSK9 (PCSK9 mRNA [2]; 80 nM): 92%
- % Inhibition of PCSK9 (PCSK9 mRNA [2]; 160 nM): 93%

Substance: 399315 (antisense eG*eG*d[5mC]*dA*dA*d[5mC]*dT*dT*d[5mC]*dA*dA*d[5mC]*e[5mC]*eT) [compound 399315]
- % Inhibition of PTP1B mRNA (PTP1B mRNA [3]; PPS 198, 1.11 nM): 0%
- % Inhibition of PTP1B mRNA (PTP1B mRNA [3]; PPS 198, 3.33 nM): 20%
- % Inhibition of PTP1B mRNA (PTP1B mRNA [3]; PPS 198, 10.0 nM): 68%
- % Inhibition of PTP1B mRNA (PTP1B mRNA [3]; PPS 198, 30.0 nM): 88%
- % Inhibition of PTP1B mRNA (PTP1B mRNA [4]; PPS 3000, 1.11 nM): 0%
- % Inhibition of PTP1B mRNA (PTP1B mRNA [4]; PPS 3000, 3.33 nM): 25%
- % Inhibition of PTP1B mRNA (PTP1B mRNA [4]; PPS 3000, 10.0 nM): 71%
- % Inhibition of PTP1B mRNA (PTP1B mRNA [4]; PPS 3000, 30.0 nM): 93%

Substance: 399113 (antisense eG*eT*dT*dA*dG*dG*d[5mC]*dA*dA*dA*dG*dG*eG*e[5mC]) [compound 399113]
- % Inhibition of PTP1B mRNA (PTP1B mRNA [3]; PPS 198, 1.11 nM): 0%
- % Inhibition of PTP1B mRNA (PTP1B mRNA [3]; PPS 198, 3.33 nM): 31%
- % Inhibition of PTP1B mRNA (PTP1B mRNA [3]; PPS 198, 10.0 nM): 72%
- % Inhibition of PTP1B mRNA (PTP1B mRNA [3]; PPS 198, 30.0 nM): 90%
- % Inhibition of PTP1B mRNA (PTP1B mRNA [4]; PPS 3000, 1.11 nM): 0%
- % Inhibition of PTP1B mRNA (PTP1B mRNA [4]; PPS 3000, 3.33 nM): 9%
- % Inhibition of PTP1B mRNA (PTP1B mRNA [4]; PPS 3000, 10.0 nM): 65%
- % Inhibition of PTP1B mRNA (PTP1B mRNA [4]; PPS 3000, 30.0 nM): 90%

Substance: 400353 (antisense eA*e[5mC]*dA*d[5mC]*d[5mC]*d[5mC]*dT*d[5mC]*dA*d[5mC]*d[5mC]*d[5mC]*e[5mC]*e[5mC]) [compound 400353]
- % Inhibition Range (PCSK9 mRNA) (PCSK9 mRNA [1]): 10-20%
- % Inhib (PCSK9 mRNA) (PCSK9 mRNA [1]): 19%
- % Inhibition of PCSK9 (PCSK9 mRNA [2]; 5 nM): 15%
- % Inhibition of PCSK9 (PCSK9 mRNA [2]; 10 nM): 27%
- % Inhibition of PCSK9 (PCSK9 mRNA [2]; 20 nM): 23%
- % Inhibition of PCSK9 (PCSK9 mRNA [2]; 40 nM): 43%
- % Inhibition of PCSK9 (PCSK9 mRNA [2]; 80 nM): 54%
- % Inhibition of PCSK9 (PCSK9 mRNA [2]; 160 nM): 48%

Substance: 399102 (antisense eG*eA*dA*dG*dT*d[5mC]*dA*d[5mC]*dT*dG*dG*d[5mC]*eT*eT) [compound 399102]
- % Inhibition of PTP1B mRNA (PTP1B mRNA [3]; PPS 198, 1.11 nM): 0%
- % Inhibition of PTP1B mRNA (PTP1B mRNA [3]; PPS 198, 3.33 nM): 15%
- % Inhibition of PTP1B mRNA (PTP1B mRNA [3]; PPS 198, 10.0 nM): 62%
- % Inhibition of PTP1B mRNA (PTP1B mRNA [3]; PPS 198, 30.0 nM): 88%
- % Inhibition of PTP1B mRNA (PTP1B mRNA [4]; PPS 3000, 1.11 nM): 0%
- % Inhibition of PTP1B mRNA (PTP1B mRNA [4]; PPS 3000, 3.33 nM): 9%
- % Inhibition of PTP1B mRNA (PTP1B mRNA [4]; PPS 3000, 10.0 nM): 60%
- % Inhibition of PTP1B mRNA (PTP1B mRNA [4]; PPS 3000, 30.0 nM): 87%

Substance: 399132 (antisense eG*eG*dG*d[5mC]*dT*dG*dA*dG*dT*dG*dA*d[5mC]*e[5mC]*e[5mC]) [compound 399132]
- % Inhibition of PTP1B mRNA (PTP1B mRNA [3]; PPS 198, 1.11 nM): 0%
- % Inhibition of PTP1B mRNA (PTP1B mRNA [3]; PPS 198, 3.33 nM): 32%
- % Inhibition of PTP1B mRNA (PTP1B mRNA [3]; PPS 198, 10.0 nM): 75%
- % Inhibition of PTP1B mRNA (PTP1B mRNA [3]; PPS 198, 30.0 nM): 95%
- % Inhibition of PTP1B mRNA (PTP1B mRNA [4]; PPS 3000, 1.11 nM): 0%
- % Inhibition of PTP1B mRNA (PTP1B mRNA [4]; PPS 3000, 3.33 nM): 26%
- % Inhibition of PTP1B mRNA (PTP1B mRNA [4]; PPS 3000, 10.0 nM): 76%
- % Inhibition of PTP1B mRNA (PTP1B mRNA [4]; PPS 3000, 30.0 nM): 91%
